From US20240041042A1, “1-(PYRIDYL)-5-AZINYLPYRAZOLE DERIVATIVES, AND THEIR USE FOR CONTROL OF UNDESIRED PLANT GROWTH” (Bayer Aktiengesellschaft, priority 2020, published 2024)

How the values were obtained:
Assay type in all cases: in vivo
[1] = system: Pharbitis purpurea (PHBPU); assay: Post-emergence herbicidal action against PHBPU
Summary of the method: (§1)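 Doses of 320 g/ha or lower, suffixes a, b and c marking different dosages, were applied post-emergence at the one-leaf stage in 600 l/ha water with 0.5% additive. Damage was assessed visually after about 3 weeks in the greenhouse.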

[2] = system: Echinochloa crus-galli (ECHCG); assay: Post-emergence herbicidal action against ECHCG
Summary of the method: as §1

[3] = system: Alopecurus myosuroides (ALOMY); assay: Pre-emergence herbicidal action against ALOMY; settings: scored visually after about 3 weeks, 100% = plants have died
Summary of the method: (§2)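 Read-out is visual percent damage relative to untreated pots, with 100% meaning dead plants and 0% meaning no difference, assessed roughly three weeks after treatment. Compounds were applied pre-emergence to the covering soil at up to 320 g/ha.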

Oryza sativa (ORYSA) = settings: crop plant compatibility, 80 g/ha, effect in comparison to untreated controls
Summary of the method: (§3)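 Visual rating (% effect vs. untreated plants; 100% = plant death) made about 3 weeks after treatment. Plants had been sprayed at one-leaf stage, 2–3 weeks post-sowing, with aqueous WP/EC preparations containing 0.5% additive, 600 l/ha water volume; a, b, c mark dose levels.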

Zea mays (ZEAMX) = settings: crop plant compatibility, 80 g/ha, effect vs untreated controls
Summary of the method: as §3

Viola tricolor (VIOTR) [4] = assay: Pre-emergence herbicidal action against VIOTR
Summary of the method: as §2

Setaria viridis (SETVI) [5] = assay: Post-emergence herbicidal action against SETVI
Summary of the method: as §1

[6] = system: Amaranthus retroflexus (AMARE); assay: Post-emergence herbicidal action against AMARE
Summary of the method: as §1

Lolium rigidum (LOLRI) [7] = assay: Pre-emergence herbicidal action against LOLRI
Summary of the method: as §2

[8] = system: Polygonum convolvulus (POLCO); assay: Post-emergence herbicidal action against POLCO
Summary of the method: as §1

[9] = system: Amaranthus retroflexus (AMARE); assay: Pre-emergence herbicidal action against AMARE; settings: visual scoring after about 3 weeks vs untreated controls
Summary of the method: as §2

[10] = system: Echinochloa crus-galli (ECHCG); assay: Pre-emergence herbicidal action against ECHCG
Summary of the method: as §2

[11] = system: Alopecurus myosuroides (ALOMY); assay: Post-emergence herbicidal action against ALOMY; settings: visual rating about 3 weeks after treatment vs untreated controls (100% = plants have died, 0% = like control plants)
Summary of the method: as §1

Viola tricolor (VIOTR) [12] = assay: Post-emergence herbicidal action against VIOTR
Summary of the method: as §1

[13] = system: Matricaria inodora (MATIN); assay: Pre-emergence herbicidal action against MATIN
Summary of the method: as §2

[14] = system: Matricaria inodora (MATIN); assay: Post-emergence herbicidal action against MATIN
Method: Seeds of monocotyledonous and dicotyledonous weeds and crop plants are placed in sandy loam in plastic or organic planting pots, covered with soil and cultivated in a greenhouse under controlled growth conditions. 2 to 3 weeks after sowing, the test plants are treated at the one-leaf stage. The compounds of the invention, formulated in the form of wettable powders (WP) or as emulsion concentrates (EC), are then sprayed onto the green parts of the plants as aqueous suspension or emulsion with addition of 0.5% additive at a water application rate of 600 l/ha (converted). After the test plants have been kept in the greenhouse under optimum growth conditions for about 3 weeks, the activity of the preparations is rated visually in comparison to untreated controls. For example, 100% activity=the plants have died, 0% activity=like control plants.
Tables B1 to B13 below show the effects of selected compounds of the general formula (I) according to Table 1 on various harmful plants and at an application rate corresponding to 320 g/ha or lower, which were obtained by the experimental procedure mentioned above. The appendices “a”, “b” and “c” give differentiation by dosage used with otherwise the same harmful plants tested.

Setaria viridis (SETVI) [15] = assay: Pre-emergence herbicidal action against SETVI
Summary of the method: as §2

Avena fatua (AVEFA) [16] = assay: Post-emergence herbicidal action against AVEFA; settings: visual rating about 3 weeks after treatment
Summary of the method: as §1

[17] = system: Pharbitis purpurea (PHBPU); assay: Pre-emergence herbicidal action against PHBPU
Source text: Seeds of monocotyledonous and dicotyledonous weed plants and crop plants are placed in plastic or organic planting pots and covered with soil. The compounds of the invention, formulated in the form of wettable powders (WP) or as emulsion concentrates (EC), are then applied to the surface of the covering soil as aqueous suspension or emulsion with addition of 0.5% additive at a water application rate equivalent to 600 l/ha. After the treatment, the pots are placed in a greenhouse and kept under good growth conditions for the trial plants. After about 3 weeks, the effect of the preparations is scored visually in comparison with untreated controls as percentages. For example, 100% activity=the plants have died, 0% activity=like control plants.
Tables A1 to A13 below show the effects of selected compounds of the general formula (I) on various harmful plants and at an application rate corresponding to 320 g/ha or lower, which were obtained by the experimental procedure mentioned above. The appendices “a”, “b” and “c” give differentiation by dosage used with otherwise the same harmful plants tested.

Lolium rigidum (LOLRI) [18] = assay: Post-emergence herbicidal action against LOLRI; settings: dosage 320 g/ha
Summary of the method: as §1

[19] = system: Polygonum convolvulus (POLCO); assay: Pre-emergence herbicidal action against POLCO
Summary of the method: as §2

[20] = system: Abutilon theophrasti (ABUTH); assay: Post-emergence herbicidal action against ABUTH; settings: 320 g/ha, visual rating about 3 weeks after treatment vs untreated controls (100% = plants have died, 0% = like control plants)
Summary of the method: as §1

[21] = system: Verconica persica (VERPE); assay: Post-emergence herbicidal action against VERPE
Summary of the method: as §1

[22] = system: Verconica persica (VERPE); assay: Pre-emergence herbicidal action against VERPE; settings: dosage 320 g/ha
Summary of the method: as §2

Avena fatua (AVEFA) [23] = assay: Pre-emergence herbicidal action against AVEFA; settings: visual scoring after about 3 weeks vs untreated controls
Summary of the method: as §2

[24] = 80 g/ha, visual rating about 3 weeks after treatment vs untreated controls (100% = plants have died, 0% = like control plants)
[25] = 320 g/ha, visual rating about 3 weeks after treatment

SMILES	Post-emergence action against PHBPU in % ([1]; dosage 80 g/ha)	Post-emergence action against PHBPU in % ([1]; dosage 320 g/ha)	Post-emergence action against ECHCG in % ([2]; dosage 80 g/ha)	Post-emergence action against ECHCG in % ([2]; dosage 320 g/ha)	Pre-emergence action against ALOMY ([3]; 320 g/ha)	Post-emergence action against ORYSA in % (Oryza sativa (ORYSA))	Post-emergence action against ZEAMX in % (Zea mays (ZEAMX))	Pre-emergence action against VIOTR in % (Viola tricolor (VIOTR) [4]; 320 g/ha, Viola tricolor)	Pre-emergence action against VIOTR in % (Viola tricolor (VIOTR) [4]; dosage 80 g/ha)	Post-emergence action against SETVI in % (Setaria viridis (SETVI) [5]; dosage 320 g/ha)	Post-emergence action against AMARE in % [6, 24]	Post-emergence action against AMARE in % [6, 25]	Pre-emergence action against LOLRI in % (Lolium rigidum (LOLRI) [7]; dosage 320 g/ha)	Post-emergence action against POLCO in % ([8]; dosage 320 g/ha)	Pre-emergence action against AMARE in % ([9]; 320 g/ha)	Pre-emergence action against ECHCG in % ([10]; dosage 320 g/ha)	Post-emergence action against ALOMY in % ([11]; 320 g/ha)	Pre-emergence action against MATIN in % ([13]; dosage 320 g/ha)	Post-emergence action against MATIN in % ([14]; dosage 320 g/ha)	Pre-emergence action against SETVI in % (Setaria viridis (SETVI) [15]; dosage 320 g/ha)	further results
O=C(O)CSc1nn(-c2ccccn2)c(-c2cncc(F)c2)c1C1CC1 [Example I-153]	80%	90%	80%	90%	90%	0%	10%	100%	90%	80%	90%	90%	80%	80%	100%	100%	80%	80%	80%	90%	Pre-emergence action against ECHCG in % ([10]; dosage 80 g/ha): 80%; Post-emergence action against VIOTR in % (Viola tricolor (VIOTR) [12]; 320 g/ha): 80%; Post-emergence action against AVEFA in % (Avena fatua (AVEFA) [16]; 80 g/ha): 80%; Post-emergence action against AVEFA in % (Avena fatua (AVEFA) [16]; 320 g/ha): 90%; Pre-emergence action against PHBPU in % ([17]; dosage 320 g/ha): 80%
COC(=O)COc1nn(-c2nc(F)ccc2F)c(-c2cncc(F)c2)c1Br [Example I-210]	90%	100%	80%	80%	90%	10%		100%	90%	80%		80%	80%		100%	100%	90%	90%	80%	100%	Pre-emergence action against ALOMY ([3]; 80 g/ha): 80%; Post-emergence action against SETVI in % (Setaria viridis (SETVI) [5]; dosage 80 g/ha): 80%; Pre-emergence action against AMARE in % ([9]; 80 g/ha): 80%; Pre-emergence action against ECHCG in % ([10]; dosage 80 g/ha): 90%; Post-emergence action against LOLRI in % (Lolium rigidum (LOLRI) [18]): 80%; Pre-emergence action against POLCO in % ([19]; dosage 80 g/ha): 90%; Pre-emergence action against POLCO in % ([19]; dosage 320 g/ha): 100%; Pre-emergence action against MATIN in % ([13]; dosage 80 g/ha): 90%; Post-emergence action against MATIN in % ([14]; dosage 80 g/ha): 80%; Pre-emergence action against SETVI in % (Setaria viridis (SETVI) [15]; dosage 80 g/ha): 90%; Post-emergence action against ABUTH in % [20]: 80%; Post-emergence action against VERPE in % ([21]; 320 g/ha, VERPE): 90%; Post-emergence action against VERPE in % ([21]; dosage 80 g/ha): 90%; Pre-emergence action against PHBPU in % ([17]; dosage 80 g/ha): 90%; Pre-emergence action against PHBPU in % ([17]; dosage 320 g/ha): 90%; Pre-emergence action against VERPE in % [22]: 100%
CC(Oc1nn(-c2ccccn2)c(-c2ccc(F)nc2)c1C(F)(F)F)C(=O)O (stereo not shown) [Example I-94]		80%		90%	100%	20%	20%	100%	100%	90%	90%	90%	100%	90%	100%	80%	100%	100%	80%	100%	Pre-emergence action against ALOMY ([3]; 80 g/ha): 80%; Post-emergence action against SETVI in % (Setaria viridis (SETVI) [5]; dosage 80 g/ha): 80%; Pre-emergence action against LOLRI in % (Lolium rigidum (LOLRI) [7]; dosage 80 g/ha): 100%; Post-emergence action against POLCO in % ([8]; dosage 80 g/ha): 80%; Pre-emergence action against AMARE in % ([9]; 80 g/ha): 80%; Post-emergence action against LOLRI in % (Lolium rigidum (LOLRI) [18]): 100%; Pre-emergence action against POLCO in % ([19]; dosage 80 g/ha): 90%; Pre-emergence action against POLCO in % ([19]; dosage 320 g/ha): 90%; Post-emergence action against ALOMY in % ([11]; 80 g/ha): 80%; Post-emergence action against VIOTR in % (Viola tricolor (VIOTR) [12]; 80 g/ha): 90%; Post-emergence action against VIOTR in % (Viola tricolor (VIOTR) [12]; 320 g/ha): 90%; Pre-emergence action against AVEFA in % (Avena fatua (AVEFA) [23]; 80 g/ha): 80%; Pre-emergence action against AVEFA in % (Avena fatua (AVEFA) [23]; 320 g/ha): 90%; Post-emergence action against ABUTH in % [20]: 80%; Post-emergence action against VERPE in % ([21]; 320 g/ha, VERPE): 90%; Post-emergence action against AVEFA in % (Avena fatua (AVEFA) [16]; 80 g/ha): 80%; Post-emergence action against AVEFA in % (Avena fatua (AVEFA) [16]; 320 g/ha): 100%; Pre-emergence action against VERPE in % [22]: 90%
